Values joined by “and” are separate entries in the source; they are usually repeats but may differ in a detail not shown here. Equal entries are not always repeated.
Test system: BDF1 mice, Adenocarcinoma 755 s.c., tumor weight T/C
Assay: NCI In Vivo Anticancer Drug Screen. Data for tumor model Adenocarcinoma 755 (subcutaneous) in B6D2F1 (BDF1) mice
Conditions: endpoint: mean tumor weight, higher = larger tumour
Procedure, shortened: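 Values express treated (T) relative to vehicle-dosed control (C) animals, based on survival or tumour size measured after compound treatment of mice bearing a transplanted tumour.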

[1] = dose: 25.0 mg/kg/injection, schedule: Q01DX011 (ip), vehicle: carboxymethylcellulose (CMC)

## CCN(CC)c1ccc2cc3ccc(=[N+](CC)CC)cc-3oc2c1
dose: 0.64 mg/kg/injection, schedule: Q01DX011 (ip), vehicle: carboxymethylcellulose (CMC)
  T/C: 33 % of control
dose: 0.66 mg/kg/injection, schedule: Q01DX011 (ip), vehicle: carboxymethylcellulose (CMC)
  T/C: 47 % of control
dose: 1.27 mg/kg/injection, schedule: Q01DX011 (ip), vehicle: carboxymethylcellulose (CMC)
  T/C: 119 % of control
dose: 1.32 mg/kg/injection, schedule: Q01DX011 (ip), vehicle: carboxymethylcellulose (CMC)
  T/C: 90 % of control
dose: 1.7 mg/kg/injection, schedule: Q01DX011 (ip), vehicle: carboxymethylcellulose (CMC)
  T/C: 91 % of control
dose: 2.64 mg/kg/injection, schedule: Q01DX011 (ip), vehicle: carboxymethylcellulose (CMC)
  T/C: 81 % of control
dose: 4.0 mg/kg/injection, schedule: Q01DX011 (ip), vehicle: other
  T/C: 115 % of control
dose: 5.0 mg/kg/injection, schedule: Q01DX011 (ip), vehicle: methylcellulose (MC)
  T/C: 70 % of control
dose: 5.1 mg/kg/injection, schedule: Q01DX011 (ip), vehicle: carboxymethylcellulose (CMC)
  T/C: 53 % of control
dose: 5.28 mg/kg/injection, schedule: Q01DX011 (ip), vehicle: carboxymethylcellulose (CMC)
  T/C: 100 % of control
dose: 8.0 mg/kg/injection, schedule: Q01DX011 (ip), vehicle: other
  T/C: 114 % of control
dose: 12.0 mg/kg/injection, schedule: Q01DX011 (ip), vehicle: other
  T/C: 90 % of control
dose: 15.0 mg/kg/injection, schedule: Q01DX011 (ip), vehicle: methylcellulose (MC)
  T/C: 75 % of control

## CC(CNC(=O)CCBr)CNC(=O)CCBr
dose: 113.0 mg/kg/injection, schedule: Q01DX011 (ip), vehicle: carboxymethylcellulose (CMC)
  T/C: 51 % of control

## Nc1nc(=S)c2ncn(C3OC(COC(=O)c4ccc([N+](=O)[O-])cc4)C(OC(=O)c4ccc([N+](=O)[O-])cc4)C3OC(=O)c3ccc([N+](=O)[O-])cc3)c2[nH]1 (stereo unspecified)
dose: 12.5 mg/kg/injection, schedule: Q01DX011 (ip), vehicle: carboxymethylcellulose (CMC)
  T/C: 34 % of control
[1]
  T/C: 20 % of control

## Cn1cnc([N+](=O)[O-])c1Sc1nc(N)nc2c1ncn2C1OC(CO)C(O)C1O (stereo unspecified)
dose: 0.03 mg/kg/injection, schedule: Q01DX011 (ip), vehicle: methylcellulose (MC)
  T/C: 89 % of control
dose: 0.06 mg/kg/injection, schedule: Q01DX011 (ip), vehicle: methylcellulose (MC)
  T/C: 76 % of control
dose: 0.11 mg/kg/injection, schedule: Q01DX011 (ip), vehicle: methylcellulose (MC)
  T/C: 14 % of control
dose: 0.22 mg/kg/injection, schedule: Q01DX011 (ip), vehicle: methylcellulose (MC)
  T/C: 1 % of control and 2 % of control
dose: 0.44 mg/kg/injection, schedule: Q01DX011 (ip), vehicle: methylcellulose (MC)
  T/C: 2 % of control
dose: 0.88 mg/kg/injection, schedule: Q01DX011 (ip), vehicle: methylcellulose (MC)
  T/C: 1 % of control
dose: 1.75 mg/kg/injection, schedule: Q01DX011 (ip), vehicle: methylcellulose (MC)
  T/C: 2 % of control

## Cn1c(=O)c2c(ncn2CC(=O)O)n(C)c1=O
dose: 63.0 mg/kg/injection, schedule: Q01DX011 (ip), vehicle: methylcellulose (MC)
  T/C: 106 % of control
dose: 125.0 mg/kg/injection, schedule: Q01DX011 (ip), vehicle: methylcellulose (MC)
  T/C: 89 % of control
dose: 250.0 mg/kg/injection, schedule: Q01DX011 (ip), vehicle: methylcellulose (MC)
  T/C: 112 % of control
dose: 500.0 mg/kg/injection, schedule: Q01DX011 (ip), vehicle: methylcellulose (MC)
  T/C: 117 % of control

## C=CCn1cnc2c(Cl)ncnc21
[1]
  T/C: 10 % of control
dose: 50.0 mg/kg/injection, schedule: Q01DX011 (ip), vehicle: carboxymethylcellulose (CMC)
  T/C: 6 % of control

## CN(C)S(=O)(=O)c1nc2nc[nH]c2c(=O)[nH]1
[1]
  T/C: 70 % of control
dose: 75.0 mg/kg/injection, schedule: Q01DX011 (ip), vehicle: carboxymethylcellulose (CMC)
  T/C: 66 % of control
dose: 225.0 mg/kg/injection, schedule: Q01DX011 (ip), vehicle: carboxymethylcellulose (CMC)
  T/C: 85 % of control

## C[C@]12CCC(=O)C=C1CC[C@@H]1[C@@H]2[C@@H](O)C[C@]2(C)C(=O)CC[C@@H]12
dose: 100.0 mg/kg/injection, schedule: Q01DX011 (sc), vehicle: steriod suspending solution
  T/C: 107 % of control
dose: 200.0 mg/kg/injection, schedule: Q01DX011 (sc), vehicle: steriod suspending solution
  T/C: 83 % of control

## CSc1nc(C)c(Br)c(Sc2nc(N)nc3nc[nH]c23)n1
dose: 0.3 mg/kg/injection, schedule: Q01DX011 (ip), vehicle: carboxymethylcellulose (CMC)
  T/C: 106 % of control
dose: 0.7 mg/kg/injection, schedule: Q01DX011 (ip), vehicle: carboxymethylcellulose (CMC)
  T/C: 117 % of control
dose: 6.0 mg/kg/injection, schedule: Q01DX011 (ip), vehicle: carboxymethylcellulose (CMC)
  T/C: 42 % of control
dose: 12.0 mg/kg/injection, schedule: Q01DX011 (ip), vehicle: carboxymethylcellulose (CMC)
  T/C: 28 % of control
dose: 24.0 mg/kg/injection, schedule: Q01DX011 (ip), vehicle: carboxymethylcellulose (CMC)
  T/C: 6 % of control

## C[N+](C)(C)C(C(=O)c1ccccc1)c1ccccc1 (stereo unspecified)
dose: 10.0 mg/kg/injection, schedule: Q01DX011 (ip), vehicle: carboxymethylcellulose (CMC)
  T/C: 124 % of control

## Cc1ccc(S(=O)(=O)OCCC(=O)N2CCN(C(=O)CCOS(=O)(=O)c3ccc(C)cc3)CC2)cc1
dose: 22.0 mg/kg/injection, schedule: Q01DX011 (ip), vehicle: methylcellulose (MC)
  T/C: 57 % of control
dose: 43.0 mg/kg/injection, schedule: Q01DX011 (ip), vehicle: methylcellulose (MC)
  T/C: 47 % of control
dose: 87.0 mg/kg/injection, schedule: Q01DX011 (ip), vehicle: methylcellulose (MC)
  T/C: 80 % of control
dose: 175.0 mg/kg/injection, schedule: Q01DX011 (ip), vehicle: methylcellulose (MC)
  T/C: 60 % of control

## Cn1c(=O)c2[nH]c(/N=N/N3CCN(CCO)CC3)nc2n(C)c1=O
dose: 75.0 mg/kg/injection, schedule: Q01DX011 (ip), vehicle: other
  T/C: 119 % of control
dose: 225.0 mg/kg/injection, schedule: Q01DX011 (ip), vehicle: other
  T/C: 92 % of control

Reference: PubChem BioAssay AID180 (DTP/NCI, 2004)
